Where two headings read alike, the source gives them in different places.
Tests used:
[1] = target: T1, NEK2 (Homo sapiens, UniProt P51955); assay: Kinase activity test (ReactionBiology), % enzyme activity relative to DMSO; assay type: biochemical; details: NEK2;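 also: FDA-approved drugs chosen by structure-based repositioning, each screened at 10 or 1 µM for kinase activity, expressed as percent of DMSO controls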
T1 construct: purchased ReactionBiology
T1 sequence (P51955 1-445): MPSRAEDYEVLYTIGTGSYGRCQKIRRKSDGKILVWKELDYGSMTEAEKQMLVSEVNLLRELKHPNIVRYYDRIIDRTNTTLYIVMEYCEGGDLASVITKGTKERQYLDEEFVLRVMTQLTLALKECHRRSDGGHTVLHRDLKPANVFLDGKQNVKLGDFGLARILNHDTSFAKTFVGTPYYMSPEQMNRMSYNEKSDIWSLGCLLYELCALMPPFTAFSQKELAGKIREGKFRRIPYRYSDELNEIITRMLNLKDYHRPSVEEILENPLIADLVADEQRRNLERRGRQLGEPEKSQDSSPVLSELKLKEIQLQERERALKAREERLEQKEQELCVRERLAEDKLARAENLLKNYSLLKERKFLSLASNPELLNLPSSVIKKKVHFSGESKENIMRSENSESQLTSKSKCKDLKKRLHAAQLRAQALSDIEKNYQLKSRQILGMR

[2] = target: T2, DAPK1 (Homo sapiens, UniProt P53355); assay: as above; assay type: biochemical; details: DAPK1
T2 construct: purchased ReactionBiology

[3] = target: T3, CK1d (Homo sapiens, UniProt P48730); assay: as above; assay type: biochemical; details: CK1d
T3 construct: purchased ReactionBiology

[4] = target: T4, EPHB4 (Homo sapiens, UniProt P54760); assay: as above; assay type: biochemical; details: EPHB4;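 also: EPHB4 was one of ten selected kinases in the screening panel, with enzyme activity expressed as a percentage of DMSO controls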
T4 construct: purchased ReactionBiology
T4 sequence (P54760 16-987): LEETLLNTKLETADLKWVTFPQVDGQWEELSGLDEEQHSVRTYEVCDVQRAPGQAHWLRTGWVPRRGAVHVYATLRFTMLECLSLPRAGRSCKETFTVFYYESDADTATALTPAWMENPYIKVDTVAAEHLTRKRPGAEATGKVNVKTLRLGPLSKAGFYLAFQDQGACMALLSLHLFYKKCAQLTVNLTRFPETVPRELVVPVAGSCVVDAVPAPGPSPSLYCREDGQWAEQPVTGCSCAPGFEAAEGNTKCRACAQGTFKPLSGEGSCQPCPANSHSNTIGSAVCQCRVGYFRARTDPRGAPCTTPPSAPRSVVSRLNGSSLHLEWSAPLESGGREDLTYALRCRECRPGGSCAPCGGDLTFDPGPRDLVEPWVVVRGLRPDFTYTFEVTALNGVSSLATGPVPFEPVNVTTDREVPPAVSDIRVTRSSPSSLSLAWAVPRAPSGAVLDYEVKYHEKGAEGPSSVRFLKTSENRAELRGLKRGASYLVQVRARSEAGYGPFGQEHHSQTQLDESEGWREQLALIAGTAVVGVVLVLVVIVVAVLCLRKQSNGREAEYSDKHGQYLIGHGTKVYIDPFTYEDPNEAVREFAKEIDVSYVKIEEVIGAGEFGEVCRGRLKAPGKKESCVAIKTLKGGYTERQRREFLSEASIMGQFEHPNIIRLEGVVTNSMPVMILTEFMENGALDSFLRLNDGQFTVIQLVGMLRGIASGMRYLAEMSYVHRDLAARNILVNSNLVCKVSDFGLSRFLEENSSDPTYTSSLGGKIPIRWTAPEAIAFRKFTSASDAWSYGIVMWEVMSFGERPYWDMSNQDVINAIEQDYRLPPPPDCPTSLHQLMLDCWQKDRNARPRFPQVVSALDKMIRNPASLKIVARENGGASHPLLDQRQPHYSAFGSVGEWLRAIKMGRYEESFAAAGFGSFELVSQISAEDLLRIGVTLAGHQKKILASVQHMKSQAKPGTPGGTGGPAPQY

[5] = test system: human CD19+ B cells; assay: B-cell assay: IgG production of ODN2006-stimulated primary B cells (AlphaLISA); assay type: cell-based; details: Homo sapiens, B-cell, 168 h; IgG production, ODN2006 0.1 μM, 7 days; mean of 4 independent experiments; read-out: B-cell IC50
Protocol: (§1) Compounds were prepared as 10 mM stock solutions in dimethylsulfoxide (DMSO)and were tested at 50-10-1-0.1-0.01 and 0.001 μM in the 4 assays.
Blood samples of healthy volunteers were collected at the Red Cross of Mechelen, Belgium.
Highly purified naive peripheral human B cells were separated from fresh human PBMCs on magnetic columns by positive selection using CD19 magnetic beads according to the manufacturer’s instructions (MACS Miltenyi Biotech, Leiden, The Netherlands). […] Freshly isolated human CD19+ B cells were then plated at 25 000 cells per well in a 384-well plate (Perkin Elmer, Zaventem, Belgium) in 55 μL in DMEM medium containing 10% FCS and 5 μg/mL gentamicin sulphate. After 7 days of stimulation with 0.1 μM ODN2006 (InvivoGen, Toulouse, France), supernatant was taken for analysis of IgG using the AlphaLISA human IgG kit according to the manufacturer’s instructions (Perkin Elmer, Zaventem, Belgium).

[6] = test system: human PBMCs (responder cells) with RPMI1788 stimulator cells; assay: Mixed Lymphocyte Reaction (MLR, T cell assay), 3H-thymidine incorporation; assay type: cell-based; details: for IC50: Homo sapiens, RPMI-1788, mean of 4 independent measures, read-out: T-cell efficacy, MLR IC 50 (µM) Mean
[7] = WST-1 cytotoxicity assay on RPMI1788 cells (B-cell line); assay type: cell-based, human; details: human, RPMI1788 cells (B-cell line), mean of 4 independent measures, read-out: Cytotoxicity, WST-1 RPMI 1788 IC 50 (µM) Mean
[8] = WST-1 cytotoxicity assay on Jurkat cells (T-cell line); assay type: cell-based, human; details: human, Jurkat cells (T-cell line), mean of 4 independent measures, read-out: Cytotoxicity, WST-1 Jurkat IC 50 (µM) Mean
Protocol: as §1
The human B cell line RPMI1788 (American Type Culture Collection, USA) and the human T cell line Jurkat (European Collection of Cell Cultures, ECACC, England) were maintained in RPMI1640 culture medium (BioWhittaker®, Lonza, Verviers, Belgium) containing 10% foetal calf serum (FCS, HyClone® Thermo Scientific, United Kingdom) and 5 μg/mL gentamicin sulphate (BioWhittaker®, Lonza, Verviers, Belgium) at 37°C and 5% CO2.
WST-1 assays on RPMI-1788 cells and Jurkat cells were performed as follows: 20 μL of test compound dilution were added to each well containing exponential growing cells and the plates were incubated for 48 h at 37°C, 5% CO2. Untreated cells and positive control (1% triton X-100, for the last 15 min) served as reference for maximum and minimum viability. At the end of incubation 100 μL of supernatant were removed and replaced by 10 μL of WST-1 solution (Cell Proliferation Reagent WST-1, Roche Applied Science).

[9] = target: VEGFR2 (Homo sapiens, UniProt P35968); assay: Kinase activity test (ReactionBiology), % enzyme activity relative to DMSO; assay type: biochemical; design: purchased ReactionBiology; details: VEGFR2;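 also: VEGFR2 was one member of a ten-kinase screening panel testing marketed FDA-approved drugs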
[10] = Average, read-out: % Enzyme Activity (relative to DMSO controls), Average
[11] = replicate Data 1, read-out: % Enzyme Activity (relative to DMSO controls), Data 1
[12] = replicate Data 2, read-out: % Enzyme Activity (relative to DMSO controls), Data 2
[13] = 1 uM, Average, read-out: % Enzyme Activity (relative to DMSO controls), Average
[14] = 1 uM, replicate Data 1, read-out: % Enzyme Activity (relative to DMSO controls), Data 1
[15] = 1 uM, replicate Data 2, read-out: % Enzyme Activity (relative to DMSO controls), Data 2
[16] = 10 uM, Average, read-out: % Enzyme Activity (relative to DMSO controls), Average
[17] = 10 uM, replicate Data 1, read-out: % Enzyme Activity (relative to DMSO controls), Data 1
[18] = 10 uM, replicate Data 2, read-out: % Enzyme Activity (relative to DMSO controls), Data 2
[19] = compound 1μM, relative to DMSO controls, read-out: % Enzyme activity at 1μM
[20] = compound 10μM, relative to DMSO controls, read-out: % Enzyme activity at 10μM

T3 sequence (P48730 whole entry): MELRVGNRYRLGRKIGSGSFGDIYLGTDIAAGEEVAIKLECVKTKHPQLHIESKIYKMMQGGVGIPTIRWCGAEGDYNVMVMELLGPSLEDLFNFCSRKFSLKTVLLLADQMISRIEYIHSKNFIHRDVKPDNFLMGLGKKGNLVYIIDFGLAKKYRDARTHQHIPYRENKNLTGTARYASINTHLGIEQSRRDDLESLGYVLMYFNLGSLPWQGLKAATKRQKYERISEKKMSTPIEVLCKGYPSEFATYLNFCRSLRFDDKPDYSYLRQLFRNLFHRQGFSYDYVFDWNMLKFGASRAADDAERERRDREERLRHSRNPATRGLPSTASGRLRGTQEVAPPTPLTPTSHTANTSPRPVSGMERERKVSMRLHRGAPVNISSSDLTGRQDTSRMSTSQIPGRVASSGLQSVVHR
T2 sequence (P53355 whole entry): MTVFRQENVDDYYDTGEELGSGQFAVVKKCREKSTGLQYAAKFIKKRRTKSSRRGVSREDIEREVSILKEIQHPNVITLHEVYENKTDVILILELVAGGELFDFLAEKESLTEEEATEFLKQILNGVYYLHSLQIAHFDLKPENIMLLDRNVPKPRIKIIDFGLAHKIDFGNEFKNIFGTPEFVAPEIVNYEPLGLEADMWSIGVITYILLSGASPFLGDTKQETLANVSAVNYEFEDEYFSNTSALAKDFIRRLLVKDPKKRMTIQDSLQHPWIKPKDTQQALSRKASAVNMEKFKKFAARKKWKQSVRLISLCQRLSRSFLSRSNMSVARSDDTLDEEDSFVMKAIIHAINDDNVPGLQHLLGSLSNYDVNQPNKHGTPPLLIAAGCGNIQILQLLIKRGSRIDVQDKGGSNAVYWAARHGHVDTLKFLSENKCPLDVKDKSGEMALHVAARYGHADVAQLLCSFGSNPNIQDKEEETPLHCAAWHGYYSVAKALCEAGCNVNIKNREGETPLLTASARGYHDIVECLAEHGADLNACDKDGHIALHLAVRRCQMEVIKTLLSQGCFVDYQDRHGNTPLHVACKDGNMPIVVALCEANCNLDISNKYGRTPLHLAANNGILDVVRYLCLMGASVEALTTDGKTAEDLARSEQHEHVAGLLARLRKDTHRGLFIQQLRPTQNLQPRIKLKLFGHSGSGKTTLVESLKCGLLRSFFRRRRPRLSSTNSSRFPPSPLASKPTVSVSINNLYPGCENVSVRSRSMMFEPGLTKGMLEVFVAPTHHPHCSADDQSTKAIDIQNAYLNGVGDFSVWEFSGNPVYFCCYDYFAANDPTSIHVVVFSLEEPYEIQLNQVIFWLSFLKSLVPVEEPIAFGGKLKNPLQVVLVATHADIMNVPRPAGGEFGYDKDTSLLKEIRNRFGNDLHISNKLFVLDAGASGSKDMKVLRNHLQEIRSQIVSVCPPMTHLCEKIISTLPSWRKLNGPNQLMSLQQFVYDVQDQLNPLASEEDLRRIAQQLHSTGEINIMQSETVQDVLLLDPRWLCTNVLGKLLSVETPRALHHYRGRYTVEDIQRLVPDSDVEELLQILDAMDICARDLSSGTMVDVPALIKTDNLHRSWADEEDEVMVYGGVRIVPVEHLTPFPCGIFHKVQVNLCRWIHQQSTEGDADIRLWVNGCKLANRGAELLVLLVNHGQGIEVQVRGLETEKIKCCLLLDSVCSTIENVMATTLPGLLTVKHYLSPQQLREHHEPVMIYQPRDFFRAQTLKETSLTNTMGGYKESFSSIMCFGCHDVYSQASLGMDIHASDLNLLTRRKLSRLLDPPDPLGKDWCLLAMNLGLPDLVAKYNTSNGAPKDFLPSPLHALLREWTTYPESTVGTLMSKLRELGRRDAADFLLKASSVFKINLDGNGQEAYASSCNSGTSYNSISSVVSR
Chain of VEGFR2 (P35968 20-1356): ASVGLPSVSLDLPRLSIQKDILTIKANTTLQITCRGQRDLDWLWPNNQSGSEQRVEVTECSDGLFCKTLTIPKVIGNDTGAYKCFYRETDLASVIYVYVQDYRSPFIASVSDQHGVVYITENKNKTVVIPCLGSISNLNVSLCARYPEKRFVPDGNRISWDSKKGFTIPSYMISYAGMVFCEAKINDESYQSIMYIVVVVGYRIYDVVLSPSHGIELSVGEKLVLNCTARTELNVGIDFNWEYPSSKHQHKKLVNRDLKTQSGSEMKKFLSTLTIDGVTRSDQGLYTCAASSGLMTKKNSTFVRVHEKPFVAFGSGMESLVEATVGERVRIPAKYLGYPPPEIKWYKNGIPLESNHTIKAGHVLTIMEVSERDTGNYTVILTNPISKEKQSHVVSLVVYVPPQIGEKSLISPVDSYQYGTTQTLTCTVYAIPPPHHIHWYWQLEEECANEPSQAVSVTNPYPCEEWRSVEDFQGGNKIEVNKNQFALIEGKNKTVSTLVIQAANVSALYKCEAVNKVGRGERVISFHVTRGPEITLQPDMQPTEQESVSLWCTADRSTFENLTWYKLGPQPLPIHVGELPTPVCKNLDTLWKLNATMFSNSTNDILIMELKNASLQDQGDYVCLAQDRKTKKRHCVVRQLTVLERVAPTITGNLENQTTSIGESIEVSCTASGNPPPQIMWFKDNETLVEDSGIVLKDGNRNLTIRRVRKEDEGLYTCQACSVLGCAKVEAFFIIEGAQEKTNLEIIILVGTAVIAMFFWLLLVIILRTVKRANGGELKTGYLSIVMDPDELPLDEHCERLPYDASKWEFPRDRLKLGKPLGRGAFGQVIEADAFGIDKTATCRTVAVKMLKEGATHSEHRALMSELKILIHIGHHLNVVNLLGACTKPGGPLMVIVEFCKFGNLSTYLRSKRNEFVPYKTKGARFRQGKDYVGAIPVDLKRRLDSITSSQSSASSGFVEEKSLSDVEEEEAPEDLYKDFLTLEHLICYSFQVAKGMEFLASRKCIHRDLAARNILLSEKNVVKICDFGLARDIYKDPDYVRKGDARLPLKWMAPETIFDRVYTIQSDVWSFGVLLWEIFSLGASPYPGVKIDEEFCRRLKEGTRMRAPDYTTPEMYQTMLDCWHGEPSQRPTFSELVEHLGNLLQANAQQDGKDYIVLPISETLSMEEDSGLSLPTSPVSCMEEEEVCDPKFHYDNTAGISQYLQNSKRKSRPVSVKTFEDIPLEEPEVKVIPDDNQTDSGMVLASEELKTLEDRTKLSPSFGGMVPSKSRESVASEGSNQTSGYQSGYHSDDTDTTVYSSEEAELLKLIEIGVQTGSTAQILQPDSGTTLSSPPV

Row | Structure (SMILES) | remaining activity at 1 µM [1, 10] [%] | remaining activity at 1 µM [1, 11] [%] | remaining activity at 1 µM [1, 12] [%] | remaining activity at 10 µM [1, 10] [%] | remaining activity at 10 µM [1, 11] [%] | remaining activity at 10 µM [1, 12] [%] | remaining activity at 1 µM [2, 13] [%] | remaining activity at 1 µM [2, 14] [%] | remaining activity at 1 µM [2, 15] [%] | remaining activity at 10 µM [2, 16] [%] | remaining activity at 10 µM [2, 17] [%] | remaining activity at 10 µM [2, 18] [%] | remaining activity at 1 µM [3, 10] [%] | remaining activity at 1 µM [3, 11] [%] | remaining activity at 1 µM [3, 12] [%] | remaining activity at 10 µM [3, 10] [%] | remaining activity at 10 µM [3, 11] [%] | remaining activity at 10 µM [3, 12] [%] | remaining activity at 1 µM [4, 13] [%] | remaining activity at 1 µM [4, 14] [%] | also measured
1 | C[C@]12CC[C@@H]3c4ccc(O)cc4CC[C@H]3[C@@H]1CC[C@@H]2O [Estradiol, reference compound] | 92.1 | 95.7 | 88.5 | 89 | 94.9 | 83 | 111 | 98 | 123 | 69 | 68.3 | 69.7 | 101 | 99.6 | 102 | 96.5 | 98.7 | 94.2 | 100 | 99.8 | remaining activity at 1 µM [2, 19]: 111%; remaining activity at 10 µM [2, 20]: 69%; remaining activity at 1 µM [4, 15]: 100%; remaining activity at 10 µM [4, 16]: 91.9%; remaining activity at 10 µM [4, 17]: 91.3%; remaining activity at 10 µM [4, 18]: 92.5%; IC50 [5]: 33.9 µM; IC50 [6]: 21.2 µM; Selectivity Index (SI) MLR/B-cell ([6]; ratio of IC50 values): 0.63; IC50 at 48 h [7]: 35.9 µM; IC50 at 48 h [8]: 19.5 µM; remaining activity at 1 µM [9, 10]: 115%; remaining activity at 1 µM [9, 11]: 115%; remaining activity at 1 µM [9, 12]: 115%; remaining activity at 10 µM [9, 10]: 105%; remaining activity at 10 µM [9, 11]: 106%; remaining activity at 10 µM [9, 12]: 103%
2 | NC(=O)c1cccnc1 [Niacinamide, reference compound] | 87.3 | 81 | 93.6 | 76.4 | 65 | 87.8 | 111 | 112 | 110 | 100 | 97.7 | 103 | 113 | 107 | 119 | 101 | 97.9 | 105 | 69.3 | 69 | remaining activity at 1 µM [4, 15]: 69.6%; remaining activity at 10 µM [4, 16]: 69.7%; remaining activity at 10 µM [4, 17]: 68.3%; remaining activity at 10 µM [4, 18]: 71.1%; remaining activity at 1 µM [4, 19]: 69.3%; remaining activity at 10 µM [4, 20]: 69.7%; IC50 [5]: > 50 µM; IC50 [6]: > 50 µM; IC50 at 48 h [7]: > 50 µM; IC50 at 48 h [8]: > 50 µM; remaining activity at 1 µM [9, 10]: 96.4%; remaining activity at 1 µM [9, 11]: 97.5%; remaining activity at 1 µM [9, 12]: 95.4%; remaining activity at 10 µM [9, 10]: 95.7%; remaining activity at 10 µM [9, 11]: 90.6%; remaining activity at 10 µM [9, 12]: 101%

Source: PMC7252619 (PLoS ONE, 2020)
